Source: PubChem BioAssay (NCI)
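Cultured in 96-well plates, cells were exposed to test compound for 48 hours across five concentrations. The concentration for 50% growth inhibition is given as GI50. At the TGI there is no net growth.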

Columns and labels:
Experiment in all cases: NCI-60 cell line screen, 48 h
786-0 renal = system: 786-0 renal
A498 renal = system: A498 renal
A549 NSCLC = system: A549 NSCLC
ACHN renal = system: ACHN renal
CAKI-1 renal = system: CAKI-1 renal
COLO 205 colon = system: COLO 205 colon
EKVX NSCLC = system: EKVX NSCLC
HCT-15 colon = system: HCT-15 colon
HOP-62 NSCLC = system: HOP-62 NSCLC
HOP-92 NSCLC = system: HOP-92 NSCLC
HT29 colon = system: HT29 colon
IGROV1 ovarian = system: IGROV1 ovarian
K-562 leukemia = system: K-562 leukemia
KM12 colon = system: KM12 colon
KM20L2 colon = system: KM20L2 colon
LOX IMVI melanoma = system: LOX IMVI melanoma
M14 melanoma = system: M14 melanoma
MALME-3M melanoma = system: MALME-3M melanoma
MOLT-4 leukemia = system: MOLT-4 leukemia
NCI-H23 lung = system: NCI-H23 lung
NCI-H460 lung = system: NCI-H460 lung
NCI-H522 lung = system: NCI-H522 lung
OVCAR-3 ovarian = system: OVCAR-3 ovarian
OVCAR-4 ovarian = system: OVCAR-4 ovarian
OVCAR-5 ovarian = system: OVCAR-5 ovarian
RPMI-8226 leukemia = system: RPMI-8226 leukemia
RXF 393 renal = system: RXF 393 renal
SF-268 CNS = system: SF-268 CNS
SF-295 CNS = system: SF-295 CNS
SK-MEL-2 melanoma = system: SK-MEL-2 melanoma
SK-MEL-28 melanoma = system: SK-MEL-28 melanoma
SK-MEL-5 melanoma = system: SK-MEL-5 melanoma
SK-OV-3 ovarian = system: SK-OV-3 ovarian
SN12C renal = system: SN12C renal
SNB-75 CNS = system: SNB-75 CNS
SW-620 colon = system: SW-620 colon
TK-10 renal = system: TK-10 renal
U251 CNS = system: U251 CNS
UACC-257 melanoma = system: UACC-257 melanoma
UACC-62 melanoma = system: UACC-62 melanoma

Structure (SMILES): O=C([CH-]C(=O)c1ccccc1)c1ccccc1.O=C([CH-]C(=O)c1ccccc1)c1ccccc1.O=C([CH-]C(=O)c1ccccc1)c1ccccc1.[Cl-].[Zr+4]
- GI50 (786-0 renal): 18.6 µM
- TGI (786-0 renal): 70.3 µM
- GI50 (A498 renal): 18.7 µM
- TGI (A498 renal): 58.6 µM
- GI50 (A549 NSCLC): 33.9 µM
- TGI (A549 NSCLC): > 100 µM
- GI50 (ACHN renal): 22 µM
- TGI (ACHN renal): > 100 µM
- GI50 (CAKI-1 renal): 12.4 µM
- TGI (CAKI-1 renal): 63.8 µM
- GI50 (COLO 205 colon): 25.7 µM
- TGI (COLO 205 colon): 78 µM
- GI50 (EKVX NSCLC): 4.03 µM
- TGI (EKVX NSCLC): 26.8 µM
- GI50 (HCT-15 colon): 18.2 µM
- TGI (HCT-15 colon): > 100 µM
- GI50 (HOP-62 NSCLC): 20.1 µM
- TGI (HOP-62 NSCLC): 75.5 µM
- GI50 (HOP-92 NSCLC): 8.09 µM
- TGI (HOP-92 NSCLC): 36 µM
- GI50 (HT29 colon): 29 µM
- TGI (HT29 colon): > 100 µM
- GI50 (IGROV1 ovarian): 34.3 µM
- TGI (IGROV1 ovarian): > 100 µM
- GI50 (K-562 leukemia): 8.02 µM
- TGI (K-562 leukemia): 25.5 µM
- GI50 (KM12 colon): 12.4 µM
- TGI (KM12 colon): 56.6 µM
- GI50 (KM20L2 colon): 33.2 µM
- TGI (KM20L2 colon): > 100 µM
- GI50 (LOX IMVI melanoma): 26.7 µM
- TGI (LOX IMVI melanoma): > 100 µM
- GI50 (M14 melanoma): 12.6 µM
- TGI (M14 melanoma): 39 µM
- GI50 (MALME-3M melanoma): 19.5 µM
- TGI (MALME-3M melanoma): 60.4 µM
- GI50 (MOLT-4 leukemia): 9.75 µM
- TGI (MOLT-4 leukemia): > 100 µM
- GI50 (NCI-H23 lung): 16.9 µM
- TGI (NCI-H23 lung): 99.7 µM
- GI50 (NCI-H460 lung): 10.8 µM
- TGI (NCI-H460 lung): 53.8 µM
- GI50 (NCI-H522 lung): 11.4 µM
- TGI (NCI-H522 lung): 46.6 µM
- GI50 (OVCAR-3 ovarian): 10.6 µM
- TGI (OVCAR-3 ovarian): 39.4 µM
- GI50 (OVCAR-4 ovarian): 15.9 µM
- TGI (OVCAR-4 ovarian): 88.4 µM
- GI50 (OVCAR-5 ovarian): 53.8 µM
- TGI (OVCAR-5 ovarian): > 100 µM
- GI50 (RPMI-8226 leukemia): 16.6 µM
- TGI (RPMI-8226 leukemia): > 100 µM
- GI50 (RXF 393 renal): 15 µM
- TGI (RXF 393 renal): 71.9 µM
- GI50 (SF-268 CNS): 15.8 µM
- TGI (SF-268 CNS): > 100 µM
- GI50 (SF-295 CNS): 12.8 µM
- TGI (SF-295 CNS): > 100 µM
- GI50 (SK-MEL-2 melanoma): 10 µM
- TGI (SK-MEL-2 melanoma): 41.2 µM
- GI50 (SK-MEL-28 melanoma): 13.2 µM
- TGI (SK-MEL-28 melanoma): 36.7 µM
- GI50 (SK-MEL-5 melanoma): 22.9 µM
- TGI (SK-MEL-5 melanoma): 60.6 µM
- GI50 (SK-OV-3 ovarian): 37.8 µM
- TGI (SK-OV-3 ovarian): 74.5 µM
- GI50 (SN12C renal): 35.9 µM
- TGI (SN12C renal): > 100 µM
- GI50 (SNB-75 CNS): 3.34 µM
- TGI (SNB-75 CNS): 30.1 µM
- GI50 (SW-620 colon): 33.8 µM
- TGI (SW-620 colon): > 100 µM
- GI50 (TK-10 renal): 27.6 µM
- TGI (TK-10 renal): 72.4 µM
- GI50 (U251 CNS): 12.1 µM
- TGI (U251 CNS): > 100 µM
- GI50 (UACC-257 melanoma): 17.2 µM
- TGI (UACC-257 melanoma): 73.1 µM
- GI50 (UACC-62 melanoma): 20.3 µM
- TGI (UACC-62 melanoma): 91.2 µM
